# In US20160158179A1, “NANOEMULSION THERAPEUTIC COMPOSITIONS AND METHODS OF USING THE SAME” (THE REGENTS OF THE UNIVERSITY OF MICHIGAN, priority 2008, published 2016):
# Tests used:
# [1] = test system: Stenotrophomonas maltophilia; test: MIC and MBC determination (CLSI, alamar blue), CF isolates
# Burkholderia cenocepacia = test: as above
# Stenotrophomonas strains = test: Checkerboard synergy study (FIC/FBC index); type: cell-based, Stenotrophomonas maltophilia; settings: in combination with P4075EC+EDTA
# Acinetobacter baumannii [2] = test: MIC and MBC determination (CLSI, alamar blue)
# Pseudomonas aeruginosa [3] = test: MIC and MBC determination (CLSI, alamar blue), CF isolates
# Burkholderia strains = test: Checkerboard synergy study (FIC/FBC index); type: cell-based, Burkholderia cenocepacia; settings: in combination with P4075EC+EDTA
# Acinetobacter baumannii [4] = test: MIC determination, CLSI microdilution with alamar blue; type: cell-based; settings: Acinetobacter baumannii (n = 5); nanoemulsions in the presence of 5 mM EDTA; in µg/mL
# Acinetobacter strains = test: Checkerboard synergy study (FIC/FBC index); type: cell-based, Acinetobacter baumannii; settings: in combination with P4075EC+EDTA
# [5] = test system: Stenotrophomonas maltophilia; test: MIC determination, CLSI microdilution with alamar blue; type: cell-based; settings: Stenotrophomonas maltophilia (n = 5); nanoemulsions in the presence of 5 mM EDTA; in µg/mL
# Pseudomonas aeruginosa [6] = test: as above; type: cell-based; settings: Pseudomonas aeruginosa (n = 5); nanoemulsions in the presence of 5 mM EDTA; in µg/mL
# [7] = share of 10 Stenotrophomonas strains with synergy
# [8] = share of 10 Burkholderia strains with synergy
# [9] = share of 10 Acinetobacter strains with synergy
substance,measurement,setting,value
Colistin,MBC 90,[1]; S. maltophilia,> 32 µg/mL
same,MIC 90,[1]; S. maltophilia,> 32 µg/mL
same,MBC 50,[1]; Stenotrophomonas,>32 µg/mL
same,MBC 90,[1]; Stenotrophomonas,>32 µg/mL
same,MIC 50,[1]; Stenotrophomonas,16 µg/mL
same,MIC 90,[1]; Stenotrophomonas,>32 µg/mL
same,MBC 90,Burkholderia cenocepacia; B. cenocepacia,> 32 µg/mL
same,MIC 90,Burkholderia cenocepacia; B. cenocepacia,> 32 µg/mL
same,MBC 50,Burkholderia cenocepacia; Burkholderia,>32 µg/mL
same,MBC 90,Burkholderia cenocepacia; Burkholderia,>32 µg/mL
same,MIC 50,Burkholderia cenocepacia; Burkholderia,>32 µg/mL
same,MIC 90,Burkholderia cenocepacia; Burkholderia,>32 µg/mL
same,MIC,Burkholderia cenocepacia; CF Burkholderia isolate NB26,>32 µg/mL
same,Overall synergy result,Stenotrophomonas strains; Stenotrophomonas,Synergy
same,FIC,Stenotrophomonas strains; isolate NB42,0.08
same,Synergy (FBC),Stenotrophomonas strains; isolate NB42,indifferent
same,Synergy (FIC),Stenotrophomonas strains; isolate NB42,yes
same,FBC,Stenotrophomonas strains; isolate NB43,0.15
same,FIC,Stenotrophomonas strains; isolate NB43,0.08
same,Synergy (FBC),Stenotrophomonas strains; isolate NB43,yes
same,Synergy (FIC),Stenotrophomonas strains; isolate NB43,yes
same,FBC,Stenotrophomonas strains; isolate NB44,0.57
same,Synergy (FBC),Stenotrophomonas strains; isolate NB44,indifferent
same,Synergy (FIC),Stenotrophomonas strains; isolate NB44,indifferent
same,FBC,Stenotrophomonas strains; isolate NB45,0.45
same,FIC,Stenotrophomonas strains; isolate NB45,0.04
same,Synergy (FBC),Stenotrophomonas strains; isolate NB45,yes
same,Synergy (FIC),Stenotrophomonas strains; isolate NB45,yes
same,Synergy (FBC),Stenotrophomonas strains; isolate Steno 1,yes and indifferent
same,Synergy (FIC),Stenotrophomonas strains; isolate Steno 1,yes and indifferent
same,Synergy (FBC),Stenotrophomonas strains; isolate Steno 2,yes and indifferent
same,Synergy (FIC),Stenotrophomonas strains; isolate Steno 2,yes
same,Synergy (FBC),Stenotrophomonas strains; isolate Steno 3,yes and indifferent
same,Synergy (FIC),Stenotrophomonas strains; isolate Steno 3,yes and indifferent
same,FBC,Stenotrophomonas strains; isolate Steno 4,1.61
same,Synergy (FBC),Stenotrophomonas strains; isolate Steno 4,indifferent
same,Synergy (FIC),Stenotrophomonas strains; isolate Steno 4,yes and indifferent
same,Synergy (FBC),Stenotrophomonas strains; isolate Steno 6,yes and indifferent
same,Synergy (FIC),Stenotrophomonas strains; isolate Steno 6,yes and indifferent
same,Synergy (FBC),Stenotrophomonas strains; isolate Steno 8,yes and indifferent
same,Synergy (FIC),Stenotrophomonas strains; isolate Steno 8,yes and indifferent
same,% FBC Synergy,Stenotrophomonas strains; [7],70%
same,% FIC Synergy,Stenotrophomonas strains; [7],90%
same,MBC 50,Acinetobacter baumannii [2]; 10 CF Acinetobacter isolates,4 µg/mL
same,MBC 90,Acinetobacter baumannii [2]; 10 CF Acinetobacter isolates,>16 µg/mL
same,MIC 50,Acinetobacter baumannii [2]; 10 CF Acinetobacter isolates,1 µg/mL
same,MIC 90,Acinetobacter baumannii [2]; 10 CF Acinetobacter isolates,1 µg/mL
same,MBC 90,Acinetobacter baumannii [2]; A. baumannii,> 16 µg/mL
same,MIC 90,Acinetobacter baumannii [2]; A. baumannii,1 µg/mL
same,MBC 50,Acinetobacter baumannii [2]; Acinetobacter,4 µg/mL
same,MBC 90,Acinetobacter baumannii [2]; Acinetobacter,>16 µg/mL
same,MIC 50,Acinetobacter baumannii [2]; Acinetobacter,1 µg/mL
same,MIC 90,Acinetobacter baumannii [2]; Acinetobacter,1 µg/mL
same,MBC 90,Pseudomonas aeruginosa [3]; P. aeruginosa,8 µg/mL
same,MIC 90,Pseudomonas aeruginosa [3]; P. aeruginosa,2 µg/mL
same,MBC 50,Pseudomonas aeruginosa [3]; Pseudomonas,4 µg/mL
same,MBC 90,Pseudomonas aeruginosa [3]; Pseudomonas,8 µg/mL
same,MIC 50,Pseudomonas aeruginosa [3]; Pseudomonas,2 µg/mL
same,MIC 90,Pseudomonas aeruginosa [3]; Pseudomonas,2 µg/mL
same,Overall synergy result,Burkholderia strains; Burkholderia,No Interference
same,Synergy (FBC),Burkholderia strains; isolate NB21,indifferent
same,Synergy (FIC),Burkholderia strains; isolate NB21,indifferent
same,Synergy (FBC),Burkholderia strains; isolate NB22,indifferent
same,Synergy (FIC),Burkholderia strains; isolate NB22,indifferent
same,FBC,Burkholderia strains; isolate NB23,2.00
same,Synergy (FBC),Burkholderia strains; isolate NB23,indifferent
same,Synergy (FIC),Burkholderia strains; isolate NB23,indifferent
same,FBC,Burkholderia strains; isolate NB24,2.00
same,Synergy (FBC),Burkholderia strains; isolate NB24,indifferent
same,Synergy (FIC),Burkholderia strains; isolate NB24,indifferent
same,FBC,Burkholderia strains; isolate NB25,3.00
same,FIC,Burkholderia strains; isolate NB25,2.00
same,Synergy (FBC),Burkholderia strains; isolate NB25,indifferent
same,Synergy (FIC),Burkholderia strains; isolate NB25,indifferent
same,FBC,Burkholderia strains; isolate NB26,0.04
same,FIC,Burkholderia strains; isolate NB26,0.56
same,Synergy (FBC),Burkholderia strains; isolate NB26,yes
same,Synergy (FIC),Burkholderia strains; isolate NB26,yes
same,Synergy (FBC),Burkholderia strains; isolate NB27,indifferent
same,Synergy (FIC),Burkholderia strains; isolate NB27,indifferent
same,FIC,Burkholderia strains; isolate NB28b,0.29
same,Synergy (FBC),Burkholderia strains; isolate NB28b,indifferent
same,Synergy (FIC),Burkholderia strains; isolate NB28b,yes
same,Synergy (FBC),Burkholderia strains; isolate NB29,indifferent
same,Synergy (FIC),Burkholderia strains; isolate NB29,indifferent
same,FIC,Burkholderia strains; isolate NB30,0.02
same,Synergy (FBC),Burkholderia strains; isolate NB30,indifferent
same,Synergy (FIC),Burkholderia strains; isolate NB30,yes
same,% FBC Synergy,Burkholderia strains; [8],10%
same,% FIC Synergy,Burkholderia strains; [8],30%
same,MIC Range,Acinetobacter baumannii [4],<=0.5-2
same,Overall synergy result,Acinetobacter strains; Acinetobacter,No Interference
same,FIC,Acinetobacter strains; isolate NB31,0.83
same,Synergy (FBC),Acinetobacter strains; isolate NB31,indifferent
same,Synergy (FIC),Acinetobacter strains; isolate NB31,indifferent
same,FIC,Acinetobacter strains; isolate NB32,0.58
same,Synergy (FBC),Acinetobacter strains; isolate NB32,indifferent
same,Synergy (FIC),Acinetobacter strains; isolate NB32,indifferent
same,FBC,Acinetobacter strains; isolate NB33,2
same,FIC,Acinetobacter strains; isolate NB33,0.33
same,Synergy (FBC),Acinetobacter strains; isolate NB33,indifferent
same,Synergy (FIC),Acinetobacter strains; isolate NB33,yes
same,FBC,Acinetobacter strains; isolate NB34,1.10
same,FIC,Acinetobacter strains; isolate NB34,0.46
same,Synergy (FBC),Acinetobacter strains; isolate NB34,indifferent
same,Synergy (FIC),Acinetobacter strains; isolate NB34,yes
same,FBC,Acinetobacter strains; isolate NB35,0.97
same,FIC,Acinetobacter strains; isolate NB35,0.72
same,Synergy (FBC),Acinetobacter strains; isolate NB35,indifferent
same,Synergy (FIC),Acinetobacter strains; isolate NB35,indifferent
same,FBC,Acinetobacter strains; isolate NB36,2
same,FIC,Acinetobacter strains; isolate NB36,0.56
same,Synergy (FBC),Acinetobacter strains; isolate NB36,indifferent
same,Synergy (FIC),Acinetobacter strains; isolate NB36,indifferent
same,FBC,Acinetobacter strains; isolate NB37,1.00
same,FIC,Acinetobacter strains; isolate NB37,0.63
same,Synergy (FBC),Acinetobacter strains; isolate NB37,indifferent
same,Synergy (FIC),Acinetobacter strains; isolate NB37,indifferent
same,FBC,Acinetobacter strains; isolate NB38,0.68
same,FIC,Acinetobacter strains; isolate NB38,0.77
same,Synergy (FBC),Acinetobacter strains; isolate NB38,indifferent
same,Synergy (FIC),Acinetobacter strains; isolate NB38,indifferent
same,FIC,Acinetobacter strains; isolate NB39,0.72
same,Synergy (FBC),Acinetobacter strains; isolate NB39,indifferent
same,Synergy (FIC),Acinetobacter strains; isolate NB39,indifferent
same,FBC,Acinetobacter strains; isolate NB40,0.91
same,FIC,Acinetobacter strains; isolate NB40,0.63
same,Synergy (FBC),Acinetobacter strains; isolate NB40,indifferent
same,Synergy (FIC),Acinetobacter strains; isolate NB40,indifferent
same,% FBC Synergy,Acinetobacter strains; [9],0%
same,% FIC Synergy,Acinetobacter strains; [9],20%
same,MIC Range,[5],<=0.5-1
same,MIC Range,Pseudomonas aeruginosa [6],<=0.5-2
